Data taken from US6596878B2, “Methods and compositions for inhibiting cell proliferative disorders” (Yissum Research & Development Company of the Hebrew …, priority 1994, dated 2003).
pIC50: −log10 of the molar value. Like-named read-outs stand apart in the source and are kept apart here.

How the values were obtained:
HER2 = biological target: T1, HER2 (Homo sapiens, UniProt P04626); test: HER2-BT474 whole cell kinase ELISA; type: cell-based
T1 construct: the human mammary carcinoma line BT474 (ATCC HTB2) expressing HER2; endogenous in cells; host or cells: BT474 human mammary carcinoma cells
T1 sequence (P04626 23-1255): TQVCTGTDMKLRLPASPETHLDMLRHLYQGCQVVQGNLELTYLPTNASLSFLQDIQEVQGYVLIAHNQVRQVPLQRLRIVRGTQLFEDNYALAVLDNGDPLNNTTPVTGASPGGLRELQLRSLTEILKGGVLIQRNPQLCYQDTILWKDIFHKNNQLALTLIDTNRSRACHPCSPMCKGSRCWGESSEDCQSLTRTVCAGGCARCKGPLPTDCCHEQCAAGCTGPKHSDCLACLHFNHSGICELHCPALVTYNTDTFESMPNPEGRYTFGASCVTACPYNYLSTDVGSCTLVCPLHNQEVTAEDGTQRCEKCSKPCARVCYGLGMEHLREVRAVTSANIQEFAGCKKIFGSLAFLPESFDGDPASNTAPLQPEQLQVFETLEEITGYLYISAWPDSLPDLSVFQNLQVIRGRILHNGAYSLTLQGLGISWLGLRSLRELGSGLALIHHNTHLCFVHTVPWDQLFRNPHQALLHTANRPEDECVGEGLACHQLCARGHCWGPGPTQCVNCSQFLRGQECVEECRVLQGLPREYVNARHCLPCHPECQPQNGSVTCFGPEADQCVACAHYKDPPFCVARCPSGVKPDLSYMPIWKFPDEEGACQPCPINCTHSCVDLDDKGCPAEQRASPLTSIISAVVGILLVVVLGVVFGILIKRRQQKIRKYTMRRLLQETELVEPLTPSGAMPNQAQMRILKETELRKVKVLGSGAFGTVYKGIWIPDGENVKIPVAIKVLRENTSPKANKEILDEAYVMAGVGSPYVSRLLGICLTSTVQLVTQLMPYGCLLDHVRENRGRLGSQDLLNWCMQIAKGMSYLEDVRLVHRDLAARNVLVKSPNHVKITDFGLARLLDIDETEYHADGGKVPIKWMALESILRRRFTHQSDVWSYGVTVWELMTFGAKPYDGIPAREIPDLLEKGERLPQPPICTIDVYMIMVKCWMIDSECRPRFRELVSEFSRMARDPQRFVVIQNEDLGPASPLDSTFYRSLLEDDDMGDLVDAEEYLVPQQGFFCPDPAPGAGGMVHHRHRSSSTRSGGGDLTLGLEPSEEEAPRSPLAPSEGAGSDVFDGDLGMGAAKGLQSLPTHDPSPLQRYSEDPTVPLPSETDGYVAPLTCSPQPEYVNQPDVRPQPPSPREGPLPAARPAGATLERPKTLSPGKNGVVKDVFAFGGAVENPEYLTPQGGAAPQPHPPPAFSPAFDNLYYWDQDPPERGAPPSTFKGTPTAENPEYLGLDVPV
Experimental: HER2-BT474 assays measuring whole cell HER2 activity was carried out as described below:
All the following steps are at room temperature and aseptically, unless stated otherwise. All ELISA plate washing is by rinsing with distilled water three times and once with TBST.
Incubate the cells in 5% CO2 at 37° C. overnight.
2. ELISA Plate Coating and Blocking

human EGF receptor = biological target: T2, human EGF receptor (Homo sapiens, UniProt P00533); test: EGF-receptor whole cell kinase assay (EGFR-3T3); type: cell-based
T2 construct: expressed in transfected cells; host or cells: NIH3T3 clone C7 (EGFR/C7; mouse fibroblasts)
T2 sequence (P00533 25-1210): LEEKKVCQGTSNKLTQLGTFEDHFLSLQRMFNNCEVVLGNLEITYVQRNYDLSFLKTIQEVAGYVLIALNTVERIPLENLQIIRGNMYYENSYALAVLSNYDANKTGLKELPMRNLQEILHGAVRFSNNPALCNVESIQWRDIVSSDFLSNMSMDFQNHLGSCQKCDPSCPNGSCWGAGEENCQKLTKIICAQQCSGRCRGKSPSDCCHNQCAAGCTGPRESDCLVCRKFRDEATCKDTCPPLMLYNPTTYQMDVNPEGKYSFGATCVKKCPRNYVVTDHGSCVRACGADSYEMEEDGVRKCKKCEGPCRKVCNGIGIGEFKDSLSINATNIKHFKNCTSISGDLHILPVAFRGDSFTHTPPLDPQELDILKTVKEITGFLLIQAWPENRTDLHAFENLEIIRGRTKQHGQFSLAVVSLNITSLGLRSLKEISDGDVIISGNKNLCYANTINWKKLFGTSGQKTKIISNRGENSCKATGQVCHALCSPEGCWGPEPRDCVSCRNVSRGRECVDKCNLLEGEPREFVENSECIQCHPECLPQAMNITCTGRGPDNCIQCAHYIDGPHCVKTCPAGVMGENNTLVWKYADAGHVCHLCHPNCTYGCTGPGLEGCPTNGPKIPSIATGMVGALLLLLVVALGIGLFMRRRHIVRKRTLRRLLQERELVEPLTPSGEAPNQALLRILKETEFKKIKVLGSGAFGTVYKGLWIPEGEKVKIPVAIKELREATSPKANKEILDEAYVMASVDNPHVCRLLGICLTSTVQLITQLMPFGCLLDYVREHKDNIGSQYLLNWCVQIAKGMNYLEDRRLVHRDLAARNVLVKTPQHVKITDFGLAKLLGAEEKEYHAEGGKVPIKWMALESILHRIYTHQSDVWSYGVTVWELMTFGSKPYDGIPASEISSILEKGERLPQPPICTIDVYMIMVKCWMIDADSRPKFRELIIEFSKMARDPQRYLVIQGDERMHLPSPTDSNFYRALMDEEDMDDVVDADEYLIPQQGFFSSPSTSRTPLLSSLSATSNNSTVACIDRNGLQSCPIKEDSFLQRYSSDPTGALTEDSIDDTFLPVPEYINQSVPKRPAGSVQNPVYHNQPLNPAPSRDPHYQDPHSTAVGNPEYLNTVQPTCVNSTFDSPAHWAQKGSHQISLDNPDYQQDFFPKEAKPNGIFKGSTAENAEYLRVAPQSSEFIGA
Experimental: (§1) The following target cells were used for cellular kinaseassays: NIH3T3 clone C7 (Honegger et al., supra) engineered to over-express human EGF receptor; NIH3T3 cells engineered to over-express a chimeric receptor containing the EGFR extracellular domain and the HER2 intracellular kinase domain; the human mammary carcinoma line BT474 (ATCC HTB2) expressing HER2; and the human glioblastoma line U1242 that expresses PDGFR-β. Growth assays were carried out using human mammary epithelial SKBR3 (ATCC HTB30) cells, SKOV3 (ATCC HTB77) human ovarian cancer cell line, A431 cells, MCF7 human breast carcinoma cells, MCF7 cells overexpress the HER2 kinase (MCF7-HER2), NIH3T3 cells, and NIH3T3 cells overexpressing the HER2 kinase (3T3-HER2).
Unless otherwise stated the effect of various compounds on receptor tyrosine kinases were assayed as described in this section.
1. EGF-receptor Whole Cell Kinase Assay
EGFR kinase activity (EGFR-3T3 assay) in whole cells was measured as described below:
The following protocol was used:
A. Coat ELISA plates (Corning, 96 well, Cat. #25805-96) with 05-101 antibody at 0.5 μg per well in PBS, 150 μl final volume/well, and store overnight at 4° C. Coated plates are good for up to 10 days when stored at 4° C.
B. On day of use, remove coating buffer and replace with blocking buffer (5% Carnation Instant Non-Fat Dry Milk in PBS). Incubate the plate, shaking, at room temperature (about 23° C. to 25° C.) for 30 minutes. Just prior to use, remove blocking buffer and wash plate 4 times with TBST buffer.
A. EGFR/C7 cell line (Honegger, et al., Cell 51:199-209, 1987) can be use for this assay.
B. Choose dishes having 80-90% confluence for the experiment. Trypsinize cells and stop reaction by adding 10% CS DMEM medium. Suspend cells in DMEM medium (10% CS DMEM medium) and centrifuge once at 1000 rpm, and once at room temperature for 5 minutes.
C. Resuspend cells in seeding medium (DMEM, 0.5% bovine serum), and count the cells using trypan blue. Viability above 90% is acceptable. Seed cells in DMEM medium (0.5% bovine serum) at a density of 10,000 cells per well, 100 μl per well, in a 96 well microtiter plate. Incubate seeded cells in 5% CO2 at 37° C. for about 40 hours.
A. Check seeded cells for contamination using an inverted microscope. Dilute drug stock (10 mg/ml in DMSO) 1:10 in DMEM medium, then transfer 5 μl to a test well for a final drug dilution of 1:200 and a final DMSO concentration of […]. Control wells receive DMSO alone. Incubate in 5% CO2 at 37° C. for one hour.
B. Prepare EGF ligand: dilute stock EGF in DMEM so that upon transfer of 10 μl dilute EGF (1:12 dilution), 25 nM final concentration is attained.
C. Prepare fresh HNTG* sufficient for 100 μl per well; and place on ice.
D. After two hours incubation with drug, add prepared EGF ligand to cells, 10 μl per well, to yield a final concentration of 25 nM. Control wells receive DMEM alone. Incubate, shaking, at room temperature, for 5 minutes.
E. Remove drug, EGF, and DMEM. Wash cells twice with PBS. Transfer HNTG* to cells, 100 μl per well. Place on ice for 5 minutes. Meanwhile, remove blocking buffer from other ELISA plate and wash with TBST as described above.
F. With a pipette tip securely fitted to a micropipettor, scrape cells from plate and homogenize cell material by repeatedly aspirating and dispensing the HNTG* lysis buffer. Transfer lysate to a coated, blocked, and washed ELISA plate. Incubate shaking at room temperature for one hour.
G. Remove lysate and wash 4 times with TBST. Transfer freshly diluted anti-Ptyr antibody to ELISA plate at 100 μl per well. Incubate shaking at room temperature for 30 minutes in the presence of the anti-Ptyr antiserum (1:3000 dilution in TBST).
H. Remove the anti-Ptyr antibody and wash 4 times with TBST. Transfer the freshly diluted TAGO anti-rabbit IgG antibody to the ELISA plate at 100 μl per well.

[1] = test system: MCF7 human breast carcinoma cells; test: MCF-7 SRB growth assay; type: cell-based; details: Table VI, 10% FBS, four days
Excerpt: as §1, with “This example illustrates the ability of the exemplary compounds to inhibit receptor tyrosine kinases, such as HER2 and/or EGFR. The” for “The”
6. MCF-7 SRB Growth Assay
(§2) MCF-7 cells are seeded at 2000 cells/ well in a 96-well flat bottom plate in normal growth media, which was 10% FBS/RPMI supplemented with 2 mM Glutamine. The plate of cells is incubated for about 24 hours at 37° C. after which it receives an equal volume of compound dilution per well making the total volume per well 200 μl. The compound is prepared at 2 times the desired highest final concentration and serially diluted in the normal growth media in a 96-well round bottom plate and then transferred to plate of cells. DMSO serves as the vector control up to 0.2% as final concentration. The cells are then incubated at 37° C. in a humidified 5% CO2 incubator.
(§3) Four days following dosing of compound, the media is discarded and 200 μl/well of ice-cold 10% TCA (Trichloroacetic Acid) is added to fix cells. After 60 minutes at 4° C., the TCA is discarded and the plate is rinsed 5 times with water. The plate is then air-dried and 100 μl/well of 0.4% SRB (Sulforhodamine B from Sigma) in 1% Acetic Acid is added to stain cells for 10 minutes at room temperature. The SRB is discarded and the plate is rinsed 5 times with 1% Acetic Acid. After the plate is completely dried, 100 μl/well of 10 mM Tris-base is added to solubilize the dye. After 5 to 10 minutes, the plate is read on a Dynatech ELISA Plate Reader at dual wavelengths at 570 nm and 630 nm.

[2] = test system: MCF7 cells overexpress the HER2 kinase (MCF7-HER2); test: MCF-7/HER-2 SRB growth assay; type: cell-based, human; details: Table VI, 0.5% FBS, four days
Excerpt: as §1, with “This example illustrates the ability of the exemplary compounds to inhibit receptor tyrosine kinases, such as HER2 and/or EGFR. The” for “The”
as §2, §3
8. MCF-7/HER-2 SRB Growth Assay
The protocol is basically the same as that above (for the MCF-7 Growth Assay) except that immediately before the compound is added, the normal growth media is removed and 0.5% FBS/RPMI supplemented with 2 mM Glutamine is added onto the cells. The compound is also prepared in this 0.5% serum media. The plate of cells is incubated for four days and developed as usual.

A431 cells = test: A431 growth assay (sulphorhodamine B); type: cell-based; details: Homo sapiens, A-431, 96 h; Table V; 4 days, SRB; read-out: Estimated IC50 Growth Assays A431 cells
Excerpt: as §1, with “This example illustrates the ability of the exemplary compounds to inhibit receptor tyrosine kinases, such as HER2 and/or EGFR. The” for “The”
SKBR3 cells over-express HER2. A431 cells over-express EGFR. These cells were dispensed into 96-well plates with test compounds. After 4 days the monolayers were TCA-fixed then stained with sulphorhodamine B. The absorbance versus log drug concentration was plotted and IC50 values estimated.
(4) Tris, crystallized free base—Fisher Catalog #BP152 Working solution: 10 mM tris=1.211 gram Trizma base/liter H2O. […]
(11) Read optical density at dual wavelength mode 570 nm and 630 nm on Dynatech ELISA plate reader, Model MR 5000.

[3] = Table VI, cellular kinase assay, read-out: HER2-BT474
[4] = Table VI, cellular kinase assay, read-out: EGFR-3T3
[5] = Table V, read-out: Estimated IC50 Cellular Kinase Assays HER2 (BT474)
[6] = Table V, read-out: Estimated IC50 Cellular Kinase Assays EGFR (EGF-3T3)
[7] = Table III, cellular kinase assay, class symbol, read-out: HER2
[8] = Table III, cellular kinase assay, class symbol, read-out: EGFR
[9] = Estimated IC50 Cellular Kinase Assays HER2 (BT474), Table V
[10] = HER2-BT474, Table VI, cellular kinase assay

pIC50 (HER2; [3]) | pIC50 (human EGF receptor; [4]) | pIC50 (HER2; [5]) | pIC50 (human EGF receptor; [6]) | SMILES | also measured
4.41 | 5.17 | – | – | N#C/C(=C\c1ccc([N+](=O)[O-])c(O)c1)C(=O)NCCCc1ccccc1 [Compound M39, (E)-3-(3-Hydroxy-4-nitrophenyl)-2-[(3-phenyl-n-propyl)aminocarbonyl]acrylonitrile] | –
– | – | 4.68 | 4.45 | Cc1cc2nc(CBr)c(-c3ccccc3)nc2cc1C [Compound R9] | –
– | – | < 4.30 | 4.60 | Cc1cc2nc3c(nc2cc1C)-c1ccccc1C3=O [Compound R15] | –
– | – | < 4.30 | 4.65 | Cc1ccc2ncnc(Nc3ccc4c(c3)OCO4)c2c1 [Compound P14a] | pIC50 (HER2; [7]): < 4.30; pIC50 (human EGF receptor; [8]): > 4.30
5.51 | < 4.00 | – | – | CC(C)c1cc(/C=C(\C#N)C(N)=S)cc(C(C)C)c1O [Compound M25, (E)-2-Aminothiocarbonyl-3-(3,5-diisopropyl-4-hydroxyphenyl)acrylonitrile] | –
5.66 | – | – | – | CC(C)c1cc(/C=C(\C#N)C(=O)Nc2ccc(C(F)(F)F)cc2)cc(C(C)C)c1O [Compound M28, (E)-3-(3,5-Diisopropyl-4-hydroxyphenyl)-2-[(4-trifluoromethyl)phenylaminocarbonyl]acrylonitrile] | pIC50 ([1]; Homo sapiens, MCF7, 96 h): 4.92; pIC50 ([2]; Homo sapiens, MCF7, 96 h): 5.70
5.07 | 5.06 | 5.07 | 5.06 | CC(C)(C)c1cc(C=C(C#N)c2[nH]nc(N)c2C#N)cc(C(C)(C)C)c1O [Compound M17] | –
– | – | 5.80 | – | COc1cc2ncnc(Nc3cccc(Cl)c3)c2cc1OC [Compound P13a] | pIC50 (HER2; [7]): > 4.30
– | – | 4.60 | 4.60 | Clc1cc2ncc(-c3ccccc3)nc2cc1Cl [Compound R14] | –
– | – | – | – | N#CC(C#N)=NNc1cccc(Cl)c1 [Compound Q11] | pIC50 (HER2; [9]): 4.96; inhibition of HER2 activity (HER2; significantly inhibit = IC50 less than 50 μM): significantly inhibited; pIC50 (human EGF receptor; Estimated IC50 Cellular Kinase Assays EGFR (EGF-3T3), Table V): < 4.30
4.59 | 4.77 | – | – | N#C/C(=C\c1cc(O)c(O)c(I)c1)C(=O)NCc1ccccc1 [Compound M23] | –
– | – | 5.15 | 7.40 | Cc1ccc2ncnc(Nc3cccc(Cl)c3)c2c1 [Compound P12a] | pIC50 (A431 cells): 5.00; pIC50 (HER2; [7]): > 4.30; pIC50 (human EGF receptor; [8]): > 4.30
– | – | < 4.30 | 4.68 | Cc1ccc2ncnc(Nc3ccc4c(c3)OCO4)c2c1 [Compound P14b] | pIC50 (HER2; [7]): < 4.30; pIC50 (human EGF receptor; [8]): > 4.30
< 4.30 | 4.43 | < 4.30 | 4.43 | CC(C)(C)c1cc(C=C(C#N)C#N)cc(Br)c1O [Compound M14] | –

SMILES | pIC50 (HER2; [3]) | pIC50 (human EGF receptor; [4]) | pIC50 (HER2; [5]) | pIC50 (human EGF receptor; [6]) | also measured
Cc1cc(/C=C(\C#N)S(=O)(=O)/C(C#N)=C/c2cc(C)c(O)c(C)c2)cc(C)c1O [Compound M38] | 4.85 | < 4.00 | – | – | activity in cellular assays (HER2; cellular assays of the Examples, versus analogous compounds having bulkier R1 and R3 groups): less activity; pIC50 [1]: < 4.00; pIC50 [2]: < 4.00
CC(C)c1cc(C=C(C#N)C#N)cc(C(C)C)c1O [Compound M19] | – | < 4.30 | – | < 4.30 | pIC50 (HER2; [9]): 4.98; pIC50 (HER2; [10]): 4.98
N#CC(C#N)=Cc1cc(O)c(O)c(I)c1 [Compound M12] | < 4.30 | 4.87 | < 4.30 | 4.87 | –
N#C/C(=C\c1ccc(O)c(O)c1)C(=O)NCCCCc1ccccc1 [Compound M10] | – | ≤ 4.30 | 4.51 | < 4.30 | pIC50 (HER2; [10]): 4.51
